Starred links: 1 amine or outer side, 2 acyl side, 3 side chain; linkers in the order of their positions; H or OH if unused. Positions of bridges follow the written chain, without caps; N, C: chain ends. Non-standard residues stand in square brackets, D forms with d. Residues, ends and D or L forms follow the SMILES beside them. X1 = CN[C@@H](C)[C@H](N[*:1])C(=O)[*:2]
What was measured:
PC-3 = test: Cytotoxicity against human PC-3 cells assessed as decrease in cell viability measured after 24 hrs by MTT assay; type: functional
MDA-MB-231 = test: Cytotoxicity against human MDA-MB-231 cells assessed as decrease in cell viability measured after 24 hrs by MTT assay; type: functional
[1] = Hemolytic activity against human RBC incubated for 1 hr; type: ADME, cell-based, Erythrocyte; details: red blood cells (erythrocytes), read-out: CC50
[2] = Cytotoxicity against HUVEC cells assessed as decrease in cell viability measured after 24 hrs by MTT assay; type: cell-based; details: human

SMILES | CC50 (PC-3) [µM] | CC50 (MDA-MB-231) [µM] | HC50 at 1 h [1] [µM] | CC50 at 24 h [2] [µM]
CC(C)C[C@@H]1NC(=O)CNC(=O)[C@H](CC(N)=O)NC(=O)[C@H](CCCNC(=N)N)NC(=O)[C@H]([C@@H](C)O)NC(=O)[C@@H]2CSSC[C@@H]3NC(=O)[C@H]([C@@H](C)O)NC(=O)CNC(=O)CNC(=O)[C@H](C(C)C)NC(=O)[C@@H]4CSSC[C@H](NC(=O)[C@H]([C@@H](C)O)NC(=O)[C@H](CSSC[C@H](NC(=O)[C@H](C(C)C)NC(=O)[C@@H]5CCCN5C1=O)C(=O)NCC(=O)N[C@@H](CCC(=O)O)C(=O)N[C@@H]([C@@H](C)O)C(=O)N4)NC(=O)CNC(=O)[C@@H]1CCCN1C(=O)[C@H]([C@@H](C)O)NC(=O)[C@H](CC(N)=O)NC3=O)C(=O)N[C@@H](CO)C(=O)N[C@@H](Cc1c[nH]c3ccccc13)C(=O)N1CCC[C@H]1C(=O)N[C@@H](C(C)C)C(=O)N2 | 3.1 | 5.1 | – | –
CC[C@H](C)[C@@H]1NC(=O)[C@H](CC(C)C)NC(=O)[C@H](C)NC(=O)[C@H]([C@H](C)O)NC(=O)[C@H](C(C)C)NC(=O)[C@H]([C@H](C)O)NC(=O)[C@H](CS)NC(=O)[C@@H]2CCCN2C1=O | 0.7 | 1.5 | 21.9 | 0.9
CC[C@H](C)[C@@H]1NC(=O)[C@@H]2CSSC[C@@H]3NC(=O)[C@H](C(C)C)NC(=O)[C@H](CCCCN)NC(=O)[C@H](CC(=O)NN)NC(=O)[C@H](CCCCN)NC(=O)[C@@H]4CSSC[C@H](NC(=O)[C@H](CO)NC(=O)[C@H](CCC(=O)O)NC(=O)CNC(=O)[C@H](CSSC[C@H](NC(=O)CNC(=O)[C@H]([C@@H](C)CC)NC(=O)[C@H](C(C)C)NC(=O)[C@H](CCC(N)=O)NC(=O)[C@H](CO)NC1=O)C(=O)N[C@@H](CCCCN)C(=O)N4)NC(=O)[C@@H]1CCCN1C(=O)[C@H]([C@@H](C)CC)NC(=O)[C@H](C)NC(=O)[C@H](CCCNC(=N)N)NC(=O)[C@H](Cc1ccc(O)cc1)NC3=O)C(=O)N[C@@H](C(C)C)C(=O)N[C@@H](Cc1ccc(O)cc1)C(=O)N[C@@H]([C@@H](C)CC)C(=O)N1CCC[C@H]1C(=O)N2 | 1.5 | 2.2 | – | 1
CC[C@H](C)[C@@H]1CC(=O)[C@H](C)NC(=O)[C@H](CCCNC(=N)N)NC(=O)[C@H](Cc2ccc(O)cc2)NC(=O)[C@@H]2CSSC[C@@H]3NC(=O)[C@@H]4CCCN4C(=O)[C@H]([C@@H](C)CC)NC(=O)[C@H](Cc4ccc(O)cc4)NC(=O)[C@H](C(C)C)NC(=O)[C@@H]4CSSC[C@H](NC(=O)[C@H](CO)NC(=O)[C@H](CSSC[C@H](NC(=O)[C@@H]5CCCN5C1=O)C(=O)NCC(=O)N[C@@H](CCC(=O)O)C(=O)N[C@@H](CO)C(=O)N4)NC(=O)CNC(=O)[C@H]([C@@H](C)CC)NC(=O)[C@H](C)NC(=O)[C@H](C)NC(=O)[C@H]([C@H](C)O)NC(=O)[C@H](CC(C)C)NC3=O)C(=O)N[C@@H](CCCCN)C(=O)N[C@@H](CC(N)=O)C(=O)N[C@@H](CCCCN)C(=O)N[C@@H](C(C)C)C(=O)N2 | 0.3 | 0.6 | – | 0.2
CC[C@H](C)[C@@H]1NC(=O)[C@H](C)NC(=O)[C@H](CO)NC(=O)[C@H](CO)NC(=O)[C@H]([C@@H](C)CC)NC(=O)[C@@H]2CSSC[C@@H]3NC(=O)[C@H](C(C)C)NC(=O)[C@H](CCCCN)NC(=O)[C@H](CO)NC(=O)[C@H](CCCCN)NC(=O)[C@@H]4CSSC[C@H](NC(=O)[C@H](CO)NC(=O)[C@H](CCC(=O)O)NC(=O)CNC(=O)[C@H](CSSC[C@H](NC(=O)CNC1=O)C(=O)N[C@@H](CO)C(=O)N4)NC(=O)[C@@H]1CCCN1C(=O)[C@H]([C@@H](C)CC)NC(=O)CNC(=O)[C@H](CC(N)=O)NC(=O)[C@H](CCCNC(=N)N)NC(=O)[C@H](Cc1ccc(O)cc1)NC3=O)C(=O)N[C@@H](C(C)C)C(=O)N[C@@H](Cc1c[nH]c3ccccc13)C(=O)N[C@@H]([C@@H](C)CC)C(=O)N1CCC[C@H]1C(=O)N2 (cyclo(AIGCSCKSKVCYRNGIPCGESCVWIPCISS); disulfide 4-18, 6-22, 11-27) | 0.6 | 1.1 | 18.5 | 0.5
CC[C@H](C)[C@@H]1NC(=O)[C@@H]2CSSC[C@@H]3NC(=O)[C@H](C(C)C)NC(=O)[C@H](CCCCN)NC(=O)[C@H](CC(N)=O)NC(=O)[C@H](CCC(N)=O)NC(=O)[C@@H]4CSSC[C@H](NC(=O)[C@H](CO)NC(=O)[C@H](CCC(=O)O)NC(=O)CNC(=O)[C@H](CSSC[C@H](NC(=O)CNC(=O)[C@H]([C@H](C)NC)NC(=O)[C@H](C(C)C)NC(=O)[C@H](C)NC(=O)[C@H](CO)NC1=O)C(=O)N[C@@H](CCCCN)C(=O)N4)NC(=O)[C@@H]1CCCN1C(=O)[C@H]([C@@H](C)CC)NC(=O)[C@H](C)NC(=O)[C@H](CCCNC(=N)N)NC(=O)[C@H](Cc1ccc(O)cc1)NC3=O)C(=O)N[C@@H](C(C)C)C(=O)N[C@@H](Cc1ccc(O)cc1)C(=O)N[C@@H]([C@@H](C)CC)C(=O)N1CCC[C@H]1C(=O)N2 (cyclo(AIPCGESCVYIPCISAV[X1]GCKCQNKVCYR); disulfide 4-20, 8-22, 13-27) [listing 1 of 2 here] | – | – | 20.1 | –
CC[C@H](C)[C@@H]1NC(=O)[C@@H]2CSSC[C@@H]3NC(=O)[C@H](C(C)C)NC(=O)[C@H](CCCCN)NC(=O)[C@H](CC(N)=O)NC(=O)[C@H](CCC(N)=O)NC(=O)[C@@H]4CSSC[C@H](NC(=O)[C@H](CO)NC(=O)[C@H](CCC(=O)O)NC(=O)CNC(=O)[C@H](CSSC[C@H](NC(=O)CNC(=O)[C@H]([C@H](C)NC)NC(=O)[C@H](C(C)C)NC(=O)[C@H](C)NC(=O)[C@H](CO)NC1=O)C(=O)N[C@@H](CCCCN)C(=O)N4)NC(=O)[C@@H]1CCCN1C(=O)[C@H]([C@@H](C)CC)NC(=O)[C@H](C)NC(=O)[C@H](CCCNC(=N)N)NC(=O)[C@H](Cc1ccc(O)cc1)NC3=O)C(=O)N[C@@H](C(C)C)C(=O)N[C@@H](Cc1ccc(O)cc1)C(=O)N[C@@H]([C@@H](C)CC)C(=O)N1CCC[C@H]1C(=O)N2 (cyclo(AIPCGESCVYIPCISAV[X1]GCKCQNKVCYR); disulfide 4-20, 8-22, 13-27) [listing 2 of 2 here] | 1.2 | 2.3 | – | –
CC[C@H](C)[C@@H]1NC(=O)[C@@H]2CSSC[C@@H]3NC(=O)[C@H](C(C)C)NC(=O)[C@H](CCCCN)NC(=O)[C@H](CC(N)=O)NC(=O)[C@H](CCCCN)NC(=O)[C@@H]4CSSC[C@H](NC(=O)[C@H](CO)NC(=O)[C@H](CCC(=O)O)NC(=O)CNC(=O)[C@H](CSSC[C@H](NC(=O)CNC(=O)[C@H]([C@@H](C)CC)NC(=O)[C@H](C(C)C)NC(=O)[C@H](CO)NC(=O)[C@H](CO)NC1=O)C(=O)N[C@@H](CO)C(=O)N4)NC(=O)[C@@H]1CCCN1C(=O)[C@H]([C@@H](C)CC)NC(=O)[C@H](C)NC(=O)[C@H](CCCNC(=N)N)NC(=O)[C@H](Cc1ccc(O)cc1)NC3=O)C(=O)N[C@@H](C(C)C)C(=O)N[C@@H](Cc1ccc(O)cc1)C(=O)N[C@@H]([C@@H](C)CC)C(=O)N1CCC[C@H]1C(=O)N2 (cyclo(AIPCGESCVYIPCISSVIGCSCKNKVCYR); disulfide 4-20, 8-22, 13-27) | 0.5 | 0.8 | 8.8 | –
CC[C@H](C)[C@@H]1NC(=O)[C@H](CCCNC(=N)N)NC(=O)CNC(=O)[C@H](CCCCN)NC(=O)[C@@H]2CSSC[C@@H]3NC(=O)[C@H](CO)NC(=O)[C@H](CCC(=O)O)NC(=O)CNC(=O)[C@@H]4CSSC[C@H](NC(=O)CNC(=O)[C@H]([C@@H](C)CC)NC(=O)[C@H](C(C)C)NC(=O)[C@H](CO)NC(=O)[C@H]([C@@H](C)O)NC(=O)[C@H](Cc5ccccc5)NC(=O)[C@H](CSSC[C@H](NC1=O)C(=O)N[C@@H](C(C)C)C(=O)N[C@@H](CCCNC(=N)N)C(=O)N[C@@H](Cc1ccccc1)C(=O)N[C@@H](CCC(N)=O)C(=O)N4)NC(=O)[C@H](Cc1ccc(O)cc1)NC(=O)[C@H]([C@@H](C)O)NC(=O)[C@H]([C@@H](C)O)NC(=O)[C@H]([C@@H](C)CC)NC(=O)[C@H](CCSC)NC(=O)CNC3=O)C(=O)N[C@@H](CO)C(=O)N2 (cyclo(CFTSVIGCSCKGRICVRFQCGESCGMITTY); disulfide 1-15, 8-20, 10-24) [listing 1 of 2 here] | – | – | > 33 | 1.2
CC[C@H](C)[C@@H]1NC(=O)[C@H](CCCNC(=N)N)NC(=O)CNC(=O)[C@H](CCCCN)NC(=O)[C@@H]2CSSC[C@@H]3NC(=O)[C@H](CO)NC(=O)[C@H](CCC(=O)O)NC(=O)CNC(=O)[C@@H]4CSSC[C@H](NC(=O)CNC(=O)[C@H]([C@@H](C)CC)NC(=O)[C@H](C(C)C)NC(=O)[C@H](CO)NC(=O)[C@H]([C@@H](C)O)NC(=O)[C@H](Cc5ccccc5)NC(=O)[C@H](CSSC[C@H](NC1=O)C(=O)N[C@@H](C(C)C)C(=O)N[C@@H](CCCNC(=N)N)C(=O)N[C@@H](Cc1ccccc1)C(=O)N[C@@H](CCC(N)=O)C(=O)N4)NC(=O)[C@H](Cc1ccc(O)cc1)NC(=O)[C@H]([C@@H](C)O)NC(=O)[C@H]([C@@H](C)O)NC(=O)[C@H]([C@@H](C)CC)NC(=O)[C@H](CCSC)NC(=O)CNC3=O)C(=O)N[C@@H](CO)C(=O)N2 (cyclo(CFTSVIGCSCKGRICVRFQCGESCGMITTY); disulfide 1-15, 8-20, 10-24) [listing 2 of 2 here] | 1.3 | 4.1 | – | –
